Source: patent US20240150368A1, “ULK INHIBITORS AND METHODS OF USE THEREOF” (Deciphera Pharmaceuticals, LLC, priority 2022, published 2024)

These compounds were tested on ULK kinase substrate ATG13 (pS318-ATG13) in T24 cells (assay: pATG13 levels of mutant HRas T24 cells after treatment with ULK inhibitors in combination with trametinib (ELISA)). Conditions: in combination with trametinib 250 nM.
Type: cell-based, human
Procedure: pATG13 Levels of Mutant HRas T24 Cells after Treatment with ULK Inhibitors in Combination with Trametinib
T24 human urinary bladder cancer cells (25000 cells/well) were added to a 96-well tissue-culture treated plate in 100 μL of pre-warmed DMEM medium supplemented with 10% characterized fetal bovine serum (Invitrogen, Carlsbad, CA), 100 units/mL penicillin G, and 100 μg/mL streptomycin and allowed to grow overnight at 37° C., 5% CO2, and 95% humidity. The following day, 100 μL of media containing trametinib or DMSO as a control was added to wells. The final concentration of trametinib in wells was 250 nM. A dose response of a test compound (0.5 μL per well) was added. DMSO (0.5 μL) was added to control wells. The plate was briefly shaken to mix wells and then incubated at 37° C. overnight. The next day, the media was aspirated and cells were washed with Dulbecco's Phosphate Buffered Saline (Gibco). Cells were lysed using MPER lysis buffer (Pierce, Rockford, IL) containing Halt Phosphatase and Protease Inhibitors (Pierce, Rockford, IL) and Phosphatase inhibitor cocktail 2 (Sigma, St. Louis, MO) at 4° C. for 10 min with shaking.
(§1) Cellular levels of phospho-Serine 318 ATG13 (pATG13) were measured via an ELISA method. Total ATG13 Antibody (Cell Signaling Cat #13273) was used to coat the wells. The plate was incubated at 4° C. overnight and washed with ELISA wash buffer (Biolegend Cat #421601). The wells were then blocked with assay diluent (Biolegend Cat #421203) for 1 h at rt. Plate wells were washed with ELISA wash buffer. Cell lysate was added to wells and incubated at rt for 2 h. Plate wells were washed with ELISA wash buffer. Biotinylated pS318-ATG13 antibody (Rockland Immunochemicals Cat #600-401-C49) was diluted in assay diluent and added to each well and incubated at rt for 1 h. Plate wells were washed with ELISA wash buffer. Streptavidin linked to horseradish peroxidase (Thermo Fisher Cat #21140) was diluted in assay diluent and added to each well and incubated at rt for 1 h. Plate wells were washed with ELISA wash buffer. High sensitivity TMB substrate (Biolegend Cat #421101) was added to each well and incubated at rt for 20 min. The reaction was stopped with 2.0N sulfuric acid. The plate was analyzed at on a plate reader measuring absorbance at 450 nm and 540 nm (background). Signal was calculated by first subtracting the background absorbance at 540 nm from the absorbance at 450 nm for each well. Next, the background corrected absorbance at 450 nm from blank wells was subtracted from test wells. Data was compared to control wells to determine % ATG13 phosphorylation. GraphPad Prism was used to calculate IC50 values.

SMILES	IC50 [µM]
CC/C(Nc1cnn(C2CCN(C(C)C)CC2)c1)=C1/C(=O)Nc2ccc(C(=O)NC[C@H]3CCCO3)cc21 [Example 1, (R,Z)-3-(1-((1-(1-isopropylpiperidin-4-yl)-1H-pyrazol-4-yl)amino)propylidene)-2-oxo-N-((tetrahydrofuran-2-yl)methyl)indoline-5-carboxamide]	≤ 0.1

What follows are compounds tested on ULK kinase substrate ATG13 (pS318-ATG13) in HCT-116 cells (assay: pATG13 levels of mutant KRas HCT-116 cells after treatment with ULK inhibitors in combination with trametinib (ELISA)). Conditions: not given.
Type: cell-based, human
Procedure: pATG13 Levels of Mutant KRas HCT-116 Cells after Treatment with ULK Inhibitors in Combination with Trametinib
HCT-116 human colon cancer cells (10000 cells/well) were added to a 384-well tissue-culture treated plate in 50 μL of pre-warmed DMEM medium supplemented with 10% characterized fetal bovine serum (Invitrogen, Carlsbad, CA), 100 units/mL penicillin G, and 100 μg/mL streptomycin and allowed to grow overnight at 37° C., 5% CO2, and 95% humidity. The following day, 10 μL of media containing trametinib or DMSO as a control was added to wells. The final concentration of trametinib in wells was 250 nM. A dose response of a test compound (0.6 μL per well) was added. DMSO (0.6 μL) was added to control wells. The plate was briefly shaken to mix wells and then incubated at 37° C. overnight. The next day, the media was aspirated and cells were washed with Dulbecco's Phosphate Buffered Saline (Gibco). Cells were lysed using MPER lysis buffer (Pierce, Rockford, IL) containing Halt Phosphatase and Protease Inhibitors (Pierce, Rockford, IL) and Phosphatase inhibitor cocktail 2 (Sigma, St. Louis, MO) at 4° C. for 10 minutes with shaking.
as §1, with “minutes.” for “min.”

SMILES	IC50 [µM]
CC/C(Nc1cnn(C2CCN(C(C)C)CC2)c1)=C1/C(=O)Nc2ccc(C(=O)NC[C@H]3CCCO3)cc21 [Example 1, (R,Z)-3-(1-((1-(1-isopropylpiperidin-4-yl)-1H-pyrazol-4-yl)amino)propylidene)-2-oxo-N-((tetrahydrofuran-2-yl)methyl)indoline-5-carboxamide]	≤ 0.1
CC/C(Nc1ccc(N2CCN(C)CC2)cn1)=C1/C(=O)Nc2ccc(C(=O)NCC(F)(F)F)cc21 [Example 75]	≤ 0.1
CC/C(Nc1cnn(C)c1)=C1/C(=O)Nc2ccc(C(=O)NCC(F)(F)F)cc21 [Example 77]	≤ 0.1
CC/C(Nc1cnn(C2CCN(C(C)C)CC2)c1)=C1/C(=O)Nc2ccc(C(=O)NCCOC(F)(F)F)cc21 [Example 82]	> 0.6
CC/C(Nc1cnn(C2CN(C)C2)c1)=C1/C(=O)Nc2ccc(C(=O)NCC(F)(F)F)cc21 [Example 86]	≤ 0.1
